In ChEMBL document CHEMBL1150688, “Guieranone A, a naphthyl butenone from the leaves of Guiera senegalensis with antifungal activity” (2003):
The source made the active and inactive calls. The calls are words filed in the database; no cut-off is given here.

Tested on: Cladosporium cucumerinum
Assay: Antifungal activity against Cladosporium cucumerinum assessed as drug level causing inhibition of fungal growth after 2 days by TLC based bioautography
Type: functional

C/C=C/C(=O)c1c(OC)cc2cc(OC)cc(OC)c2c1OC [GUIERANONE A] showed an INH of 1 µg.
For COc1cc(OC)c2c(c1)cc(OC)c1c(=O)cc(C)oc12, the Activity was “inactive”.
COc1cc(OC)c2c3c(c(OC)cc2c1)C(=O)CC(C)O3 (stereo not drawn) was tested, and the Activity was “inactive”.
